Test results published in patent publication US12508225B2, “Lipid compound and use thereof in delivery of nucleic acid” (BEIJING TRICISIONBIO THERAPEUTICS INC., priority 2021, dated 2025).

Test: TNS dye-binding assay for dissociation constant (pKa)
Format: physicochemical
From the text: Ionizable lipids have two main roles: binding to nucleic acids and allowing the release of the nucleic acid molecules in cells.

With `CCCCC/C=C\C/C=C\CCCCCCC(O)CNCCN(C)CCN(CC(O)CCCCCC/C=C\C/C=C\CCCCC)CC(O)CCCCCC/C=C\C/C=C\CCCCC` (stereo not shown) [II-37] the pKa was 6.81.
